The values below come from paper PMC7318538, “Bergenia pacumbis from Nepal, an astonishing enzymes inhibitor” (BMC Complementary Medicine and Therapies, 2020).

A short description of test [1]: DPPH radical scavenging assay. As to conditions: 30 min in the dark, absorbance 517 nm; mean ± SD, triplicates. On the procedure:
In-vitro antioxidant potential of the different extracts of B. pacumbis was assessed by 1,1-diphenyl 1–2-picryl-hydrazyl (DPPH) assay accordingly with Jha et al.. One milliliter of plant extract of different concentrations was added in 3 mL of the DPPH solution ([…]) and incubated for 30 min in the dark. Absorbance was measured at the wavelength (λ) = 517 nm in a UV-visible spectrophotometer (UV-1800, SHIMADZU). Gallic acid and methanolic DPPH were used as reference and positive control respectively.

Test [2] in a line: ABTS radical scavenging assay. As to conditions: 10 min in the dark, absorbance 720 nm; mean ± SD, triplicates. The procedure:
In-vitro 2, 2′-azino-bis (3-ethylbenzothiazoline-6-sulphonic acid) (ABTS) scavenging assay was performed as by Liyanaarachchi et al.. An aliquot of 1 mL of plant extract of varying concentrations was mixed with 3 mL of ABTS working solution and incubated for 10 min in the dark and the decrease in absorbance was recorded at λ = 720 nm in a UV-visible spectrophotometer. Gallic acid and 50% methanol were used as reference and positive control respectively.

Molecules are shown by their SMILES. Values after ≈ are worked out from the molar mass of the structure shown.

As for `O=C(O)c1cc(O)c(O)c(O)c1` [Gallic Acid], in test [1], the “IC50 Value DPPH” value worked out at 5.12 ± 0.12 mg/L (≈ 30.1 µM). For the same compound, in test [2], the “IC50 Value ABTS” value was determined as 1.96 ± 0.05 mg/L (≈ 11.5 µM).
